What was measured:
[1] = Pharmacokinetic study in mice; format: in vivo, Balb/C male mice; conditions: 100 mg/kg intragastric, saline solution
Experimental: The pharmacokinetics of the compound 2 has been studied white Balb/C male mice. 27 animals with average body weight of 20 g were selected for the study. The animals were kept on standard vivarium ration with dry pelleted feed before the experiment. All the test animals had free access to water but were deprived of food for 1 hour before administration of the compound. This regimen was continued for another hour after the administration.
Compound in a dose of 100 mg/kg of body weight was administered as 0.5 mL of saline solution by intragastric intubation.
The animals were euthanized by decapitation for blood and brain sampling. Blood and brain samples (3 animals per time point) were taken at 15, 30, 60, 120, 240, 360 1440 min after administration for pharmacokinetic evaluation. Blood was collected in heparinized tubes and centrifuged at 3500 RPM. Plasma was separated from formed elements and immediately frozen at −20° C. in freezer. This storage continued before transferring of plasma for analysis. Serum from 6 untreated animals was used as control and for equipment calibration with compound. Mice brain was immediately frozen at −120° C.

[2] = system: Penicillium notatum; test: Antifungal agar well diffusion assay; conditions: 20 μL water solution in 4 mm well
Experimental: (§3) The well diffusion test was performed using Casitone agar. The inoculum used was prepared using the Candida or Aspergillus strains from a 24-hour culture on Sabouraud dextrose agar, a suspension was made in a sterile saline solution (0.85%). The turbidity of the suspension was adjusted with a spectrophotometer at 530 nm to obtain a final concentration to match that of a 0.5 McFarland standard (0.5-2.5×10^3). 20 mL of Bacto-casitone were melted, cooled to 55° C. and then inoculated with 1 mL of the organism suspension. The inoculated agar was poured into the assay plate (9 cm in diameter) and allowed to cool down on a leveled surface.

[3] = Acute toxicity, intragastric administration in mice; format: in vivo, C57BL/6 male white mice; conditions: per os, doses lower than 300 mg/kg, 14 days observation
Experimental: Acute and subacute toxicity of compound 2 was experimentally studied for intragastric administration in white mice. […] The compound was solubilized in saline to be administrated to animals.
Experimental animals: 35 C57BL/6 male white mice, 7 weeks old, weight 20-22 g. The following experimental procedure was used: • administration route of the compound: per os; • number of doses: […]; • dosage: 100-200-250-300-500-600-750 mg/kg; • volume introduced into 0.3 ml/20 g (15 ml/kg); • data recorded: behavior, weight changes, rectal temperature, mortality.

[4] = system: M. tuberculosis H37Rv; test: REMA MIC90, broad spectrum of microorganisms; format: cell-based; conditions: Mycobacterium tuberculosis, Wild-type, read-out: MIC to Compound 2
[5] = system: M. abscessus clinical isolate n. 8; test: REMA MIC90, broad spectrum of microorganisms; format: cell-based; conditions: Mycobacteroides abscessus, M. abscessus clinical isolate n. 8, resistant to moxifloxacin, doxycycline, read-out: MIC to Compound 2
Experimental: (§1) To determine the in vitro activity of compounds (MIC90) against Mycobacterium abscessus ATCC 19977, the resazurin reduction microplate assays (REMA) is performed. Briefly, serial 2-fold dilutions of drug are prepared in 96-well microtiter plates (Fluoronunc, Thermo Fisher, Waltham, MA, USA) in 100 μL of Middlebrook 7H9 medium (Difco), supplemented with 10% OADC without addition of Tween 80. Then, M. abscessus log-phase cultures were diluted (OD600=0.02) and added in the 96-well microtiter plate. Growth controls containing no compound and sterile controls without inoculum are also included. Also, a compound known to be active against M. abscessus growth is included as positive control. After 1 day of incubation at 37° C., 10 μL of resazurin (0.025% w/v) is added to each well, and bacterial viability is assessed after a further 24 h of incubation using a Fluoroskan™ Microplate Fluorometer (Thermo Fisher Scientific, Waltham, MA, USA; excitation=544 nm, emission=590 nm). Bacterial viability was calculated as a percentage of resazurin turnover in the absence of compound (MIC90). […]. Results are expressed as the average of at least three independent replicates and presented on the following Table 1.
(§2) By using the same procedure, the compound according to Example B (compound 2) was tested on broad spectrum of microorganisms and the corresponding results are presented in the below Table 2.

[6] = system: M. abscessus MDR clinical isolate 2 (from CF patient); test: REMA MIC90, broad spectrum of microorganisms; format: cell-based; conditions: Mycobacteroides abscessus, resistant to amikacin, amoxicillin, imipenem, linezolid and others, read-out: MIC to Compound 2
Experimental: as §1, §2

[7] = system: M. avium clinical isolate n. 3; test: REMA MIC90, broad spectrum of microorganisms; format: cell-based; conditions: Mycobacterium avium, M. avium clinical isolate n. 3, resistant to linezolid, read-out: MIC to Compound 2
Experimental: as §1, §2

[8] = system: M. avium clinical isolate n. 2; test: REMA MIC90, broad spectrum of microorganisms; format: cell-based; conditions: Mycobacterium avium, M. avium clinical isolate n. 2, resistant to linezolid, read-out: MIC to Compound 2
Experimental: as §1, §2

[9] = system: M. abscessus MDR clinical isolate 1; test: REMA MIC90, broad spectrum of microorganisms; format: cell-based; conditions: Mycobacteroides abscessus, M. abscessus MDR clinical isolate 1, resistant to amikacin, clarithromycin, doxycycline, bedaquiline and others, read-out: MIC to Compound 2
Experimental: as §1, §2

[10] = system: M. abscessus clinical isolate n. 10; test: REMA MIC90, broad spectrum of microorganisms; format: cell-based; conditions: Mycobacteroides abscessus, M. abscessus clinical isolate n. 10, resistant to moxifloxacin, doxycycline, read-out: MIC to Compound 2
Experimental: as §1, §2

[11] = system: M. abscessus clinical isolate n. 9; test: REMA MIC90, broad spectrum of microorganisms; format: cell-based; conditions: Mycobacteroides abscessus, M. abscessus clinical isolate n. 9, resistant to clarithromycin, moxifloxacin, doxycycline, read-out: MIC to Compound 2
Experimental: as §1, §2

[12] = system: MRSA Staphylococcus aureus clinical isolate; test: REMA MIC90, broad spectrum of microorganisms; format: cell-based; conditions: read-out: MIC to Compound 2
Experimental: as §1, §2

[13] = system: Aspergillus niger; test: Antifungal agar well diffusion assay; conditions: 20 μL water solution in 4 mm well
Experimental: as §3

## CCOC(=O)c1ccc([S-])[n+]([O-])c1.[Na+] [Compound 2, Sodium 5-(ethoxycarbonyl)pyridine-2-thiolate 1-oxide]
[1]
  Bioavailability: high bioavailability
[2]
  Inhibition Zone of Test Microorganism: 15 mm
[3]
  Acute toxicity: animal death: there were no cases of animal death
  Acute toxicity: general state and behavior: did not cause changes in the general state and behavior of the mice
[4]
  MIC: 25 µg/mL
[5]
  MIC: 500 µg/mL
[6]
  MIC: 500 µg/mL
[7]
  MIC: 500 µg/mL
[8]
  MIC: 500 µg/mL
[9]
  MIC: 500 µg/mL
[10]
  MIC: 500 µg/mL
[11]
  MIC: 500 µg/mL
[12]
  MIC: 8000 µg/mL
[13]
  Inhibition Zone of Test Microorganism: 28 mm

— patent US20260191845A1, “PYRIDINE-2-THIOL 1-OXIDE DERIVATIVES AND THEIR USE FOR TREATMENT OF MAMMALIAN INFECTIONS CAUSED BY MYCOBACTERIUM OR FUNGI” (priority 2022, published 2026)
